Source: US20060069132A1, “Azolecarboxamide herbicides” (priority 2004, published 2006)

Key:
cocklebur = assay: Test C pre-/postemergence herbicide test; type: in vivo, Xanthium strumarium; conditions: for Plant response rating, Cocklebur / Plant response rating (0 = no effect, 100 = complete control), Cocklebur: preemergence
Text: (§1) Seeds of plant species selected from bermudagrass (Cynodon dactylon (L.) Pers.), Surinam grass (Urochloa decumbens (Staph) R. D. Webster, previously named Brachiaria decumbens Stapf), cocklebur (Xanthium strumarium L.), corn (Zea mays L.), large crabgrass (Digitaria sanguinalis (L.) Scop.), woolly cupgrass (Eriochloa villosa (Thunb.) Kunth), giant foxtail (Setaria faberi Herrm.), goosegrass (Eleusine indica (L.) Gaertn.), johnsongrass (Sorghum halepense (L.) Pers.), kochia (Kochia scoparia (L.) Schrad.), lambsquarters (Chenopodium album L.), morningglory (Ipomoea coccinea L.), eastern black nightshade (Solanum ptycanthum Dunal), yellow nutsedge (Cyperus esculentus L.), pigweed (Amaranthus retroflexus L.), common ragweed (Ambrosia elatior L.), soybean (Glycine max (L.) Merr.), common (oilseed) sunflower (Helianthus annuus L.) and velvetleaf (Abutilon theophrasti Medik.) were planted and treated preemergence with test chemicals formulated in a non-phytotoxic solvent mixture which included a surfactant.
(§2) At the same time, plants selected from these crop and weed species and also winter barley (Hordeum vulgare L.), blackgrass (Alopecurus myosuroides Huds.), canarygrass (Phalaris minor Retz.), chickweed (Stellaria media (L.) Vill.), downy bromegrass (Bromus tectorum L.), green foxtail (Setaria viridis (L.) Beauv.), Italian ryegrass (Lolium multiflorum Lam.), wheat (Triticum aestivum L.), wild oat (Avenafatua L.) and windgrass (Apera spica-venti (L.) Beauv.) were treated with postemergence applications of some of the test chemicals formulated in the same manner. Plants ranged in height from 2 to 18 cm (1- to 4-leaf stage) for postemergence treatments. Plant species in the flooded paddy test consisted of rice (Oryza sativa), smallflower umbrella sedge (Cyperus difformis L.), ducksalad (Heteranthera limosa (Sw.) Willd.) and barnyardgrass (Echinochloa crus-galli (L.) Beauv.) grown to the 2-leaf stage for testing. Treated plants and controls were maintained in a greenhouse for 12 to 14 days, after which time all species were compared to controls and visually evaluated. Plant response ratings, summarized in Table C, are based on a scale of 0 to 100 where 0 is no effect and 100 is complete control. A dash (-) response means no test result.

kochia = assay: Test C pre-/postemergence herbicide test; type: in vivo, Kochia scoparia; conditions: preemergence
Text: as §1, §2

lambsquarters = assay: Test C pre-/postemergence herbicide test; type: in vivo, Chenopodium album; conditions: preemergence
Text: as §1, §2

morningglory = assay: Test C pre-/postemergence herbicide test; type: in vivo, Ipomoea coccinea; set-up: key to Plant response rating, Morningglory: 0 = no effect, 100 = complete control; conditions: preemergence
Text: as §1, §2

common ragweed = assay: Test C pre-/postemergence herbicide test; type: in vivo, Ambrosia elatior; set-up: key to Plant response rating, Ragweed: 0 = no effect, 100 = complete control; conditions: preemergence
Text: as §1, §2

[1] = tested on: smallflower umbrella sedge; assay: Test C flooded paddy test; type: in vivo, Cyperus difformis; conditions: for Plant response rating, Sedge, Umbrella: 500 g ai/ha, visual rating after 12 to 14 days
ducksalad = assay: Test C flooded paddy test; type: in vivo, Heteranthera limosa; conditions: for Plant response rating, Ducksalad: 500 g ai/ha, visual rating after 12 to 14 days
barnyardgrass = assay: Test A pre-/postemergence herbicide test; type: in vivo, Echinochloa crus-galli
Summary of the method: (§3)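 Both application timings were run together: directed soil spray over freshly planted seeds in sandy loam, and runoff spray onto 2–10 cm seedlings. Evaluation after ~10 days in greenhouse used a 0–100 visual scale versus untreated controls.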

velvetleaf = assay: Test A pre-/postemergence herbicide test; type: in vivo, Abutilon theophrasti
Summary of the method: as §3

[2] = 500 g ai/ha, scale 0 to 100 (0 no effect, 100 complete control), visual, 12 to 14 days
[3] = 125 g ai/ha, scale 0 (no effect) to 100 (complete control), visual, 12 to 14 days
[4] = 62 g ai/ha, scale 0 to 100 (0 no effect, 100 complete control)
[5] = 125 g ai/ha, scale 0 to 100 (0 no effect, 100 complete control)
[6] = 250 g ai/ha, scale of 0 to 100, 0 is no effect, 100 is complete control
[7] = scale 0 to 100 (0 no effect, 100 complete control)
[8] = Postemergence, 500 g ai/ha, 0 to 100 scale, 0 no effect, 100 complete control
[9] = Postemergence, 2000 g ai/ha, 0 to 100 scale, 0 no effect, 100 complete control
[10] = Preemergence, 500 g ai/ha, visual rating, 0 to 100 scale (0 no effect, 100 complete control)
[11] = Preemergence, 2000 g ai/ha, visual rating, 0 to 100 scale (0 no effect, 100 complete control)
[12] = 125 g ai/ha, scale of 0 to 100, 0 is no effect, 100 is complete control
[13] = preemergence, 500 g ai/ha, visual injury, 0 to 100 scale (0 no effect, 100 complete control)

Compound | Plant response rating, Cocklebur (cocklebur; 62 g ai/ha, scale 0 to 100) | Plant response rating, Cocklebur (cocklebur; 250 g ai/ha, scale 0-100) | Plant response rating, Morningglory (morningglory; 62 g ai/ha, scale 0 to 100) | Plant response rating, Morningglory (morningglory; [2]) | Plant response rating, Ragweed (common ragweed; 62 g ai/ha, scale 0 to 100) | Plant response rating, Ragweed (common ragweed; [2]) | Plant response rating, Cocklebur (cocklebur; [3]) | Plant response rating, Morningglory (morningglory; [3]) | Sedge, Umbrella plant response rating [1, 4] | Sedge, Umbrella plant response rating [1, 5] | Sedge, Umbrella plant response rating [1, 6] | Plant response rating, Sedge, Umbrella [1, 7] | Ducksalad plant response rating (ducksalad; [5]) | Ducksalad plant response rating (ducksalad; [6]) | Plant response rating, Ducksalad (ducksalad; [7]) | Barnyardgrass plant response rating (barnyardgrass; [8]) | Plant response rating, Barnyardgrass (barnyardgrass; [9]) | Velvetleaf plant response rating (velvetleaf; [8]) | Plant response rating, Velvetleaf (velvetleaf; [9]) | Velvetleaf plant response rating (velvetleaf; [11]) | other results
CCNC(=S)c1cccc(NC(=O)c2nn(C(C)(C)C)nc2C)c1 [Compound 420] | 0 | 15 | 10 | 100 | 0 | 85 | – | – | – | – | – | – | – | – | – | – | – | – | – | – | Plant response rating (0 = no effect, 100 = complete control), Cocklebur (cocklebur; 125 g ai/ha): 0; Plant response rating, Cocklebur (cocklebur; [2]): 70; Plant response rating, Kochia (kochia; 62 g ai/ha, scale 0 to 100): 70; Plant response rating (0 = no effect, 100 = complete control), Kochia (kochia; 125 g ai/ha): 85; Plant response rating, Kochia (kochia; 250 g ai/ha, scale 0-100): 100; Plant response rating, Kochia (kochia; [2]): 100; Plant response rating, Lambsquarters (lambsquarters; 62 g ai/ha, scale 0 to 100): 95; Plant response rating (0 = no effect, 100 = complete control), Lambsquarters (lambsquarters; 125 g ai/ha): 100; Plant response rating, Lambsquarters (lambsquarters; 250 g ai/ha, scale 0-100): 100; Plant response rating, Lambsquarters (lambsquarters; [2]): 100; Plant response rating (0 = no effect, 100 = complete control), Morningglory (morningglory; 125 g ai/ha): 55; Plant response rating (0 = no effect, 100 = complete control), Ragweed (common ragweed; 125 g ai/ha): 55
CCn1nc(C(C)(C)C)cc1C(=O)Nc1cc(C(=O)N(C)OC)ccc1F [Compound 244] | 0 | 0 | 0 | 55 | 95 | 100 | 0 | 15 | 20 | 65 | 70 | 85 | 85 | 85 | 95 | – | – | – | – | – | Cocklebur plant response rating (cocklebur; Preemergence, 500 g ai/ha, scale 0 to 100, 0 no effect, 100 complete control): 0; Plant response rating, Morningglory (morningglory; 250 g ai/ha, scale 0-100): 20; Plant response rating, Ragweed (common ragweed; 250 g ai/ha, scale 0-100): 100; Ducksalad plant response rating (ducksalad; [4]): 25
CCOC(=O)c1cc(NC(=O)c2cc(C(C)(C)C)nn2CC)ccc1OCC [Compound 95] | – | – | – | – | – | – | 5 | 10 | 85 | – | 95 | 95 | – | 75 | 90 | 30 | 55 | 45 | 50 | 80 | Barnyardgrass plant response rating (barnyardgrass; [10]): 30; Barnyardgrass plant response rating (barnyardgrass; Preemergence, 2000 g ai/ha, 0 to 100 scale, 0 no effect, 100 complete control): 50; Velvetleaf plant response rating (velvetleaf; [10]): 50; Plant response rating, Cocklebur (cocklebur; 31 g ai/ha, scale 0 to 100): 0; Plant response rating (0 = no effect, 100 = complete control), Cocklebur (cocklebur; 62 g ai/ha): 0; Plant response rating, Cocklebur (cocklebur; 250 g ai/ha, scale 0 to 100 (0 no effect, 100 complete control), visual, 12 to 14 days): 10; Plant response rating, Kochia (kochia; 31 g ai/ha, scale 0 to 100): 80; Plant response rating (0 = no effect, 100 = complete control), Kochia (kochia; 62 g ai/ha): 100; Plant response rating, Kochia (kochia; [3]): 100; Plant response rating, Morningglory (morningglory; 31 g ai/ha, scale 0 to 100): 0; Plant response rating (0 = no effect, 100 = complete control), Morningglory (morningglory; 62 g ai/ha): 5; Plant response rating, Ragweed (common ragweed; 31 g ai/ha, scale 0 to 100): 10; Plant response rating (0 = no effect, 100 = complete control), Ragweed (common ragweed; 62 g ai/ha): 50; Plant response rating, Ragweed (common ragweed; [3]): 80; Sedge, Umbrella plant response rating [1, 12]: 90; Ducksalad plant response rating (ducksalad; [4]): 10; Ducksalad plant response rating (ducksalad; [12]): 25
CCN(C(C)=O)C(=O)c1ccc(F)c(NC(=O)c2cc(C(C)(C)C)nn2CC)c1 [Compound 413] | – | – | – | – | – | – | – | – | – | 50 | 75 | 75 | 45 | 70 | 70 | 20 | 50 | 40 | 55 | 35 | Barnyardgrass plant response rating (barnyardgrass; [11]): 75; Barnyardgrass plant response rating (barnyardgrass; [13]): 60; Velvetleaf plant response rating (velvetleaf; [13]): 35; Sedge, Umbrella plant response rating ([1]; 62 g ai/ha, scale 0 to 100): 10; Ducksalad plant response rating (ducksalad; 62 g ai/ha, scale 0 to 100): 15
CCNC(=O)c1ccc(F)c(NC(=O)c2cc(C(C)(C)C)nn2CC)n1 [Compound 278] | – | – | – | – | – | – | – | – | – | 25 | 65 | 75 | 0 | 0 | 20 | 30 | 60 | 20 | 25 | 35 | Barnyardgrass plant response rating (barnyardgrass; [11]): 80; Barnyardgrass plant response rating (barnyardgrass; [13]): 50; Velvetleaf plant response rating (velvetleaf; [13]): 20; Sedge, Umbrella plant response rating ([1]; 62 g ai/ha, scale 0 to 100): 0; Ducksalad plant response rating (ducksalad; 62 g ai/ha, scale 0 to 100): 0
